{"source": "paper PMC10028264", "about": "“Synergistic antifungal interaction of N-(butylcarbamothioyl) benzamide and amphotericin B against Cryptococcus neoformans” (Frontiers in Microbiology, 2023)", "target": "T1, cryptococcal urease (Cryptococcus neoformans, UniProt O13465)", "T1 construct": "100 μL of crude protein extract; endogenous in cells; host or cells: Cryptococcus neoformans ATCC 34872, crude lysate (glass-bead lysis, supernatant)", "T1 sequence (O13465 whole entry)": "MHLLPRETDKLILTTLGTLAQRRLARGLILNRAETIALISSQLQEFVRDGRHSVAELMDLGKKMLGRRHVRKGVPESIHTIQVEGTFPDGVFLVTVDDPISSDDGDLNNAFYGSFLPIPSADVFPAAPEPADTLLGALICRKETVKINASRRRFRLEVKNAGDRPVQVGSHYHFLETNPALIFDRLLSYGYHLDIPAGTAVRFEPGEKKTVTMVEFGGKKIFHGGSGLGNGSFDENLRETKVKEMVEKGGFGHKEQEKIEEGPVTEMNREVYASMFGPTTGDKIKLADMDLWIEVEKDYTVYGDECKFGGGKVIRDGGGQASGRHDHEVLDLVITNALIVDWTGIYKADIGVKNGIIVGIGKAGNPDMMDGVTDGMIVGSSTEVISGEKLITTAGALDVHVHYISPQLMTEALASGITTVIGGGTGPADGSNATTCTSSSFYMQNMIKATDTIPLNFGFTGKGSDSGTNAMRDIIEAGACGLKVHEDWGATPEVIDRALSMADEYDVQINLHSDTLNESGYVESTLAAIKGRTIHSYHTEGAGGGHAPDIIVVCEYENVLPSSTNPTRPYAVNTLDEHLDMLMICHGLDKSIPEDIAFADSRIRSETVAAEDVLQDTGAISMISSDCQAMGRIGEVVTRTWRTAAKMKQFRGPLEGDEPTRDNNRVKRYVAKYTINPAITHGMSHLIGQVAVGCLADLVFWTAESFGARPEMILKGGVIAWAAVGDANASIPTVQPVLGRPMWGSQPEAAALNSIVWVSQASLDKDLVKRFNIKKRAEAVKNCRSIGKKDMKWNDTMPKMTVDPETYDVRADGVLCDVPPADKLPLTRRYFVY", "assay": "Urease activity inhibition test (indophenol method, crude protein extract)", "type": "biochemical", "conditions": "C. neoformans ATCC 34872 crude protein extract; indophenol method", "experimental": "Five colonies of C. neoformans were suspended in 100 μL SD broth and inoculated onto SD agar using a Drigalski spreader, and the culture was incubated at 37°C for 48 h. Afterward, all fungal growth was gently scraped and transferred to conical flasks containing 300 mL of SD broth and incubated with shaking (150 rpm) at 37°C for further 48 h. Cells were centrifuged (6,000 × g, 10 min) and washed three times with distilled water. The protein extraction was performed according to [Moller et al. (2016)] with modifications. Briefly, fungal cells were resuspended in 10 mL of chilled lysis buffer consisting of 100 μM Nα-tosyl-L-lysine chloromethyl ketone hydrochloride (TLCK), 1 mM EDTA, 10% glycerol and 0.15 M phosphate-buffered saline (PBS), pH 8.0. […] Then, the cell debris was removed by centrifugation (6,000 × g, 15 min, 4°C), and the protein content of the resulting supernatant was quantified using the […].\nThe inhibition of urease activity was evaluated by the indophenol method ([Weatherburn, 1967]). […] The reaction mixtures were incubated for further 10 min at 45°C, and the optical density (OD) was measured at 630 nm. Urease inhibition percentage (I%) was calculated according to the equation: I% = 100–(ODBTU–01/ODcontrol) × 100. […]", "data": [{"smiles": "NC(N)=S", "note": "[thiourea, Thiourea, reference compound]", "values": [{"measurement": "IC50 urease activity", "result": 38.6, "unit": "µg/mL"}]}]}
